Assay results taken from patent US6881756B2, “Method for treating skin disorders” (Johnson & Johnson Consumer Companies, Inc., priority 2001, dated 2005).

Assays:
Albino male CD-1 mice [1] = test: Neurosensory (neurogenic) inflammation model: resiniferatoxin-induced ear edema; assay type: in vivo, mouse; details: for activity in the neurosensory inflammation model (in words): resiniferatoxin ear edema model, overall; for % Inhibition of the Ear Edema: 20 μl to left ear, biopsy weight at 30 minutes
Excerpt: Neurosensory inflammation, also referred to as neurogenic inflammation, is a type of inflammation triggered by sensory nerve activation in skin. Certain natural substances that act on vanilloid receptors cause the nerves (C-fibers) to release inflammatory neuropeptides such as substance P and calcitonin gene-related peptide. In mouse skin, an edema response rapidly occurs upon application of either the vanilloid receptor activators, capsaicin or resiniferatoxin. Compounds that inhibit the response to neurosensory stimulation could be useful as topical analgesics, itch inhibitors or soothing agents for irritated or damaged skin. See U.S. Pat. No. 6,090,811.
Albino male CD-1 mice, 7-9 weeks old, were used. Resiniferatoxin alone (0.05%) or a combination of 0.05% resiniferatoxin with test compound was made in acetone. A 20-μl volume of the solutions was applied to the left ears (10 mice per treatment group). The right ear was not treated. The mice were sacrificed by CO2 inhalation 30 minutes after applying the solutions. The left and right ears were removed and a 7-mm biopsy was removed from each ear and weighed. The difference in biopsy weights between the right and left ear was calculated. The percent inhibition was calculated by comparing treatments to resiniferatoxin alone. Anti-edema effects of compounds are evident as an inhibition of the increase in ear weight.

Albino male CD-1 mice [2] = test: Allergic contact dermatitis model: oxazolone-induced ear swelling; assay type: in vivo, mouse; details: for % Inhibition of the Ear Swelling Response: 20 μL to left ear 1 hour after oxazolone challenge, ear biopsy weight at 24 hours
Experimental: Allergic contact dermatitis is an animal model of skin inflammation that mimics many aspects of human skin inflammation. See Young J M, De Young L M, Cutaneous Models of Inflammation for the Evaluation of Topical and Systemic Pharmacological Agents; In: Pharmacological Methods in the Control of Inflammation, Alan R. Liss, Inc, pp. 215-231 (1989). […] The inflammatory response is established by using oxazolone as the chemical sensitizer. A topical anti-inflammatory agent is assessed by measuring its ability to suppress the ear swelling reaction after applying a challenge dose of oxazolone to the ear followed by the test agent.
In this assay, the totarol (Mende-DEK Limited, Masterton, New Zealand) was evaluated against hydrocortisone, a steroid known to inhibit allergic contact dermatitis. Albino male CD-1 mice, 7-9 weeks old, were induced on the shaved abdomen with 50 μL of 3% oxazolone in acetone/corn oil (Day 0). On Day 5, a 20 μL volume of 2% oxazolone in acetone was applied to the dorsal left ear of the mouse. Test agents were applied to the left ear (20 μL) 1 hour after oxazolone challenge in a 70% ethanol/30% propylene glycol vehicle. The right ear was not treated. The mice were sacrificed by CO2 inhalation 24 hours after the oxazolone challenge, the left and right ears were removed and a 7-mm biopsy was taken from each ear and weighed. Anti-inflammatory effects of compounds are evident as an inhibition of the increase in ear weight.

SMILES | activity in the neurosensory inflammation model (in words) (Albino male CD-1 mice [1]) | % Inhibition of the Ear Edema (Albino male CD-1 mice [1]; topical dose 1% w/v with 0.05% resiniferatoxin in acetone) | topical anti-inflammatory activity (in words) (Albino male CD-1 mice [2]; oxazolone allergic contact dermatitis model, overall) | % Inhibition of the Ear Swelling Response (Albino male CD-1 mice [2]; topical dose 0.03% w/v) | % Inhibition of the Ear Swelling Response (Albino male CD-1 mice [2]; topical dose 0.3% w/v) | % Inhibition of the Ear Swelling Response (Albino male CD-1 mice [2]; topical dose 1% w/v) | activity compared with hydrocortisone (in words) (Albino male CD-1 mice [2]; totarol at its two highest doses vs highest dose of hydrocortisone) | % Inhibition of the Ear Swelling Response (Albino male CD-1 mice [2]; topical dose 0.001% w/v) | % Inhibition of the Ear Swelling Response (Albino male CD-1 mice [2]; topical dose 0.01% w/v) | % Inhibition of the Ear Swelling Response (Albino male CD-1 mice [2]; topical dose 0.1% w/v) | % Inhibition of the Ear Edema (Albino male CD-1 mice [1]; topical dose 0.5% w/v with 0.05% resiniferatoxin in acetone)
CC(C)c1c(O)ccc2c1CC[C@H]1C(C)(C)CCC[C@]21C [Totarol] | highly effective | 46.6% | highly effective as a topical anti-inflammatory agent with dose-dependent inhibition of the inflammatory response | 44.6% | 80.0% | 82.3% | equivalent in activity to the highest dose of hydrocortisone | – | – | – | –
C[C@]12CCC(=O)C=C1CC[C@@H]1[C@@H]2[C@@H](O)C[C@@]2(C)[C@H]1CC[C@]2(O)C(=O)CO [Hydrocortisone, reference compound] | – | – | – | – | – | – | – | 36.0% | 65.5% | 84.2% | –
CCCCC/C=C\C/C=C\C/C=C\C/C=C\CCCC(=O)NCc1ccc(O)c(OC)c1 [Arvanil, reference compound] | also active | – | – | – | – | – | – | – | – | – | 26.8%
